Patent US7267977B2, “Peripheral-type benzodiazepine receptor: a tool for detection, diagnosis, prognosis, and treatment of cancer” (Georgetown University, priority 1998, dated 2007)

Key:
PBR [1] = biological target: T1, PBR (Homo sapiens, UniProt P30536); assay: Fluorescent microscopy with compound 4 fluorescent PBR ligand, cultured cells; assay type: cell-based; parameters: endogenous in cells; host or cells: MDA-231, MCF-7 and MCF-7ADR (ADR) human breast cancer cells, whole cells or isolated nuclei; details: MDA-231 cells, 100 uM competitor, 1 uM compound 4, 45 min at 37° C.
Experimental: Fluorescent Microscopy with the compound 4 fluorescent PBR Ligand—MA-10, MDA-231, MCF-7, and ADR cells were grown on glass coverslips as previously described [Kozikowski et al. (1997) J. Med. Chem. 40: 2435-2439]. Cells were then washed twice with sterile PBS and incubated for 45 min with 1 uM compound 4, a fluorescent derivative of the PBR ligand FGIN-27, with or without a competing PBR ligand, FGIN-27, at a concentration of 100 uM. After the incubation period, the cells were washed with PBS and examined by fluorescent microscopy using an Olympus BH-2 fluorescence microscope.
Target sequence in this assay (P30536 2-169): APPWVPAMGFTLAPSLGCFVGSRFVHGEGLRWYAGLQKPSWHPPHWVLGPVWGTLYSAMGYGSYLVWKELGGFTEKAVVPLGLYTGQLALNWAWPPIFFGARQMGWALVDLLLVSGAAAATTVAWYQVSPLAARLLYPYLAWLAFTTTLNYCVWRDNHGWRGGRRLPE

[2] = biological target: T2, peripheral-type benzodiazepine receptor (PBR) (Homo sapiens, UniProt P30536); assay: [3H]PK11195 radioligand binding to whole cells (Scatchard analysis, competition); details: 50 μg protein, [3H]PK11195, Scatchard plot
T2 construct: Cells were scraped from 150 mm culture dishes into 5 ml phosphate buffered saline (PBS); endogenous in cells; host or cells: MDA-231, MCF-7 and MCF-7ADR (ADR) human breast cancer cells, whole cells or isolated nuclei
Experimental: (§1) Radioligand Binding Assays—Cells were scraped from 150 mm culture dishes into 5 ml phosphate buffered saline (PBS), dispersed by trituration, and centrifuged at 500×g for 15 min. Cell pellets were resuspended in PBS and assayed for protein concentration. […] Scatchard plots were analyzed by the LIGAND program [Munson, (1980) Anal. Biochem. 107:220]. […] IC50 estimation was performed using the LIGAND program (Munson, 1980, supra).

[3] = biological target: T2, peripheral-type benzodiazepine receptor (PBR); assay: [3H]PK11195 binding to isolated nuclei (Scatchard analysis); details: pmol/mg nuclear protein
Experimental: as §1
(§2) Nuclear Uptake of ^3H-Cholesterol—Nuclei were isolated from MDA-231, MCF-7, and as described by Elango et al (1997). […] Samples were then centrifuged at 500×g for 30 min and pellets were washed in […] ice-cold PBS. After a second centrifugation at 500×g for 30 min, 200 ul 1.0 N NaOH was then added to the pellets and incubated overnight at 37° C. After incubation, 200 ul 1.0 N HCl was added and samples were vigorously vortexed. 3 ml scintillation cocktail (Eco-Lite) was then added prior to reading radioactivity on a Wallac 1409 Liquid Scintillation Counter.

MDA-231 nuclei = assay: Nuclear uptake of 3H-cholesterol, MDA-231 nuclei; assay type: biochemical, human; details: -8 to -6M PK11195, MDA-231 nuclei, 60 min at 37° C.
Experimental: as §2

MCF-7 nuclei = assay: Nuclear uptake of 3H-cholesterol, MCF-7 nuclei; assay type: biochemical, human; details: increasing concentrations of PK11195
Experimental: as §2

MDA-231 cells = assay: BrdU cell proliferation ELISA; assay type: cell-based, human; details: for stimulation of MDA-231 cell proliferation: 48 h
Experimental: BrdU Cell Proliferation Assays and BrdU-labeling of MDA-231 Cells—MDA-231 cells were plated on 96-well plates (Corning) at a concentration of approximately 10,000 cells/well (24 h incubation) or approximately 5,000 cells/well (48 h incubation) in DMEM supplemented with 0.1% FBS.

PBR [4] = biological target: T1, PBR; assay: Compound 4 fluorescence labeling of human breast tissue biopsies; parameters: Paraffin embedded sections of normal breast tissue; from tissue; host or cells: human breast biopsies (normal tissue and aggressive carcinoma), Lombardi Cancer Center; details: 1000 fold excess of competitive ligand
Target sequence in this assay (P30536 whole entry): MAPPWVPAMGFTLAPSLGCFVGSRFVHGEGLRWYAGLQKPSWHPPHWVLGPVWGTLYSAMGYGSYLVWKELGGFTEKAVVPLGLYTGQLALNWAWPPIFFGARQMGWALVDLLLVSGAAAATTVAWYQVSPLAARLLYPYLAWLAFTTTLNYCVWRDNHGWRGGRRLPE
Experimental: PBR ligand binding activity was determined using the fluorescent PBR derivative compound 4 [Munson, 1980, supra]
In some samples, the hematoxylin counterstaining was omitted in order to confirm the PBR positive staining of the nuclei of breast carcinoma cells (b). […] In this experiment an FITC-coupled secondary antibody was used to localize the immunoreactive PBR protein. […] PBR ligand binding activity was also determined in the aggressive breast carcinomas using the fluorescent PBR derivative compound 4 (FIG. 10e).

T2 sequence (P30536 2-169): as the sequence (P30536 2-169) above

| SMILES | displacement of compound 4 fluorescent binding (PBR [1]) | Bmax ([2]; ADR (MCF-7ADR) cells) | Bmax ([2]; MDA-231 cells) | Bmax ([3]; nuclei isolated from MCF-7 cells) | Bmax ([3]; nuclei isolated from MDA-231 cells) | decrease in the amount of cholesterol uptake (MDA-231 nuclei) | response of cholesterol uptake to PK11195 dose-response (MCF-7 nuclei) | effect on MDA-231 cell proliferation (MDA-231 cells; 24 h, −10 and −9M) | stimulation of MDA-231 cell proliferation (MDA-231 cells; any of the micromolar concentrations) | stimulation of MDA-231 cell proliferation (MDA-231 cells; −8M) | Emax (MDA-231 cells; Homo sapiens, MDA-MB-231, 24 h, −5M, read-out: maximal stimulation of MDA-231 cell proliferation) | toxicity to MDA-231 cells (MDA-231 cells; −4M) | displacement of compound 4 fluorescence (PBR [4]; aggressive breast carcinoma biopsies) | displacement of compound 4 fluorescence (PBR [4]; normal human breast tissue) |
| --- | --- | --- | --- | --- | --- | --- | --- | --- | --- | --- | --- | --- | --- | --- |
| CCCCCCN(CCCCCC)C(=O)Cc1c(-c2ccc(F)cc2)[nH]c2ccccc12 [FGIN-27] | displacement of fluorescent binding | – | – | – | – | – | – | – | – | – | – | – | – | – |
| CCC(C)N(C)C(=O)c1cc2ccccc2c(-c2ccccc2Cl)n1 (centres unmarked) [PK11195] | – | 1.3±0.23 pmol/mg protein | 8.7±1.4 pmol/mg protein | 0.4±0.2 pmol/mg protein | 6.9±4.8 pmol/mg protein | ~20% | failed to respond | no effect | no stimulation | 40% | 40% | toxic concentration | completely displaced the fluorescence | completely displaced the fluorescence |
